Results as given in patent US20100069345A1, “Lanthanide-porphyrin complexes as anti-tumor agents” (priority 2005, published 2010).

How the values were obtained:
[1] = tested on: human hepatocellular carcinoma cells (Hep3B); test: MTT cell viability assay, Hep3B; assay type: cell-based; conditions: 37° C., 48 h, mean ± SD
Source text: (§1) Human cervical epitheloid carcinoma cells (HeLa), human hepatocellular carcinoma cells (HepG2 and Hep3B), human breast cancer cells (MCF-7), human coloadenocarcinoma cells (HCT-8), and normal human lung fibroblast cells (CCD-19Lu) were purchased from American Type Culture Collection (ATCC) Rockville, Md., USA. The human hepatocellular cancinoma cells QGY-7703, and the multi-drug resistant cell line QGY-TR50 derived from QGY-7703, were generously provided by Prof. Yong Xie (The Hong Kong University of Science and Technology, Hong Kong PRC). QGY-TR50 cells were isolated and cultured as described (J. Zhou, S. C. Cheng, D. Luo, Y. Xie Biochem. Biophys. Res. Commun. 2001, 280, 1237-1242). Human nasopharyngeal carcinoma cells (SUNE1 and its cisplatin-resistant variant—CNE2) were derived from poorly differentiated NPC in Chinese patients and were generously provided by Dr. S. W. Tsao (The University of Hong Kong, Hong Kong PRC). Cell culture flasks and 96-well microtitre plates were from Nalge Nunc Int. Culture medium, other medium constituents and phosphate buffer saline (PBS) were obtained by Gibco BRL Rockville, Md., USA. Cell Proliferation kit I (MTT) was purchased from Roche. Mannheim, Germany.

[2] = Stability by UV-visible in presence of reduced glutathione; assay type: physicochemical; conditions: 6 mM GSH in DMSO/Tris buffer solution (1:9)
Method: Moreover, concomitant band broadening in spectrum of complex 1 was observed after 24 h. No significant spectral shift and formation of new absorption band were observed. […] Comparing with the spectra of complex 1, the decrease in Soret band intensity of complex 2b is less significant. The intensities are only found to decrease in 2% and 19% after 2 h and 24 h, respectively. Also, there is no significant spectral shift and formation of new absorption band were observed (FIG. 8).

[3] = Stability by UV-visible in DMSO/Tris buffer; assay type: physicochemical; conditions: DMSO/Tris buffer solution (1:9), 24 h, room temperature; complex 1 3 μM, complex 2b 7 μM
Method: UV-visible experiments. The absorption spectra of 3 μM of complex 1 in DMSO/Tris buffer solution (1:9) were monitored for 24 h. […] The complex was monitored over 24 h at room temperature and about 23% decrease in the Soret band intensity was recorded without any significant spectral shift in both Soret and Q-bands (FIG. 5). The absorption spectra of 7 μM of complex 2b in DMSO/Tris buffer solution (1:9) were also monitored for 24 h.

HeLa cells [4] = test: Confocal microscopy with AO/EB staining; assay type: cell-based, human; conditions: complex 1 0.2 μM 20 h, complex 2b 10 μM 16 h
Source text: Confocal Microscopic Experiment. By examining cell morphology under scanning confocal microscopy, the type of cell death can be distinguished. Early phase of apoptosis is characterized by the formation of apoptotic bodies when the integrity of the cell membrane is maintained without cell lysis. On the other hand, necrosis is characterized by cell lyses with the leaking out of internal cellular components such as DNA. With ethidium bromide (DNA stain) and acridine orange (cell membrane stain) as staining agents, normal, apoptotic and necrotic cells can be distinguished under laser confocal microscopy (Chan et. al., Inorg. Chem. 2002, 41, 3161-3171).

[5] = tested on: human cervical epitheloid carcinoma cells (HeLa); test: MTT cell viability assay, HeLa; assay type: cell-based
Source text: as §1

[6] = tested on: normal human lung fibroblast cells (CCD-19Lu); test: MTT cell viability assay, CCD-19Lu; assay type: cell-based
Source text: as §1

LC3 = test: Subcellular distribution of GFP-LC3; assay type: cell-based, human; conditions: HeLa transfected with GFP-LC3, 1 μM, 1-4 hours
Method: Subcellular Distribution of LC3. HeLa cells were transiently transfected with a plasmid expressing green fluorescent protein-tagged LC3 (GFP-LC3) using GeneJuice (Novagen, USA). After overnight incubation, HeLa cells were treated 1 (1 μM) for 1, 2, 3, and 4 hours respectively. Green fluorescence of GFP-LC3 was examined under the Olympus IX71 microscope (Melville, N.Y.). Images were captured with CCD digital camera RT COLOR, Spot (Diagnostic Instruments, Inc., Melville, N.Y.).
The redistribution of microtubule-associated protein 1 light chain 3 (LC3) was also examined. LC3 is a maker of autophagosomes in mammalian cells which the localization changes from a diffuse cytosolic pattern to a punctuate pattern representing its recruitment to the autophagosomal membrane during the induction of autophagy. HeLa cells were transfected with plasmid encoded a fusion protein of GFP and LC3 (GFP-LC3), so that the cellular trafficking of LC3 can be directly visualized by live fluorescence microscopy.

[7] = tested on: human hepatocellular cancinoma cells QGY-7703; test: MTT cell viability assay, QGY-7703; assay type: cell-based
Source text: as §1

HeLa cells [8] = test: Effect of 3-MA on 1-induced cytotoxicity (MTT); assay type: cell-based, human; conditions: 3-MA 10 mM 1 h then 1 for 24 h, P<0.001
Method: HeLa cells were pre-treated with 3-MA (10 mM) for 1 h, and then with 1 for 24 h as indicated. Cell viability was measured using MTT assay *, P<0.001. Effect of 3-MA on 1-induced cytotoxicity. Cells were seeded on 96-well microtitre plates (8×10^3 cells per well). After overnight incubation, the cells were pre-incubated with 3-methyladenine (3-MA, 10 mM) for 1 hour and then in the presence of 1 (DMSO<1%) for 24 h. Cell viability was measured by MTT assay as described before.

[9] = tested on: human breast cancer cells (MCF-7); test: MTT cell viability assay, MCF-7; assay type: cell-based
Source text: as §1

[10] = IC50 of cisplatin divided by IC50 of complex

IC50 [1]: 780 ± 60 nM | decrease in Soret band intensity, reduced glutathione, 2 h ([2]; 2 h): 7% | decrease in Soret band intensity, reduced glutathione, 24 h ([2]; 24 h): 52% | IC50 ratio cisplatin/complex, HeLa [5, 10]: 30.2 | IC50 ([5]; MTT, 37° C., 48 h, mean ± SD of three experiments): 470 ± 300 nM | IC50 ratio cisplatin/complex, QGY-7703 [7, 10]: 763 | IC50 ([7]; MTT, 37° C., 48 h, mean ± SD): 60 nM | IC50 ratio cisplatin/complex, MCF-7 [9, 10]: 63.89 | IC50 ([9]; MTT, 37° C., 48 h, mean ± SD): 550 nM
Substance: [Yb2(OEP)2](μ-OH)2 [Complex 1]
decrease in Soret band intensity [3]: about 23% | cell morphology (type of cell death) under confocal microscopy (HeLa cells [4]): both living and apoptotic cells were observed | IC50 ratio cisplatin/complex, CCD-19Lu [6, 10]: 16.8 | IC50 ([6]; MTT, 37° C., 48 h, mean ± SD): 5400 ± 6800 nM | redistribution of GFP-LC3 (LC3): time-dependent increase in punctuated green fluorescence | times more effective than cisplatin in eradicating QGY-7703 human liver cancer cell line ([7]; compared with cisplatin): 760 times | effect of 3-MA pretreatment on viability of 1-treated cells (HeLa cells [8]): significantly increases cell viability | cytotoxic activity toward breast cancer cell line (MCF-7), times higher than that of cisplatin ([9]; compared with cisplatin): 60 times
